Results taken from the supplement of paper PMC8612539.
Converted amounts (≈) assume the structure as drawn.

Tests used:
Pasteurella multocida = assay: minimum inhibitory concentration (MIC)
Method: (§1)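 Broth microdilution MIC (Sensititre BOPO7F bovine plate, CLSI methods) of 19 antimicrobials against field isolates of P. multocida, M. haemolytica, H. somni (deep nasopharyngeal swabs) and E. coli, Enterococcus spp. (rectal swabs) from weaned dairy heifers. Incubation 16-24 h at 35 C. MIC is the lowest concentration preventing visible growth. Values with <= or > lie at the tested range limits. Trimethoprim-sulfamethoxazole is given as the trimethoprim component of a 1:19 mixture.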

Enterococcus spp. = assay: minimum inhibitory concentration (MIC)
Method: as §1

CC[C@H]1OC(=O)C[C@@H](O)[C@H](C)[C@@H](O[C@@H]2O[C@H](C)[C@@H](O)[C@H](N(C)C)[C@H]2O)[C@@H](CCN2C[C@H](C)C[C@H](C)C2)C[C@@H](C)C(=O)/C=C/C(C)=C/[C@@H]1CO[C@@H]1O[C@H](C)[C@@H](O)[C@@H](OC)[C@H]1OC [Tilmicosin]
minimum inhibitory concentration [µg/mL]
Conditions | Enterococcus spp. | Pasteurella multocida
isolate (source animal id): 2 | 8 (≈ 9.2 µM) | –
isolate (source animal id): 35 | > 16 | –
isolate (source animal id): 42 | 8 (≈ 9.2 µM) | –
isolate (source animal id): 44 | 8 (≈ 9.2 µM) | –
isolate (source animal id): 79 | 8 (≈ 9.2 µM) | –
isolate (source animal id): 88 | 8 (≈ 9.2 µM) | –
isolate (source animal id): 91 | 8 (≈ 9.2 µM) | –
isolate (source animal id): 92 | 16 (≈ 18.4 µM) | –
isolate (source animal id): 111 | 8 (≈ 9.2 µM) | –
isolate (source animal id): 122 | > 16 | –
isolate (source animal id): 123 | 8 (≈ 9.2 µM) | –
isolate (source animal id): 133 | 8 (≈ 9.2 µM) | –
isolate (source animal id): 158 | > 16 | –
isolate (source animal id): 168 | 16 (≈ 18.4 µM) | –
isolate (source animal id): 169 | 16 (≈ 18.4 µM) | –
isolate (source animal id): 171 | 16 (≈ 18.4 µM) | –
isolate (source animal id): 175 | > 16 | –
isolate (source animal id): 177 | 16 (≈ 18.4 µM) | –
isolate (source animal id): 181 | 8 (≈ 9.2 µM) | –
isolate (source animal id): 182 | 16 (≈ 18.4 µM) | –
isolate (source animal id): 183 | 8 (≈ 9.2 µM) | –
isolate (source animal id): 187 | 16 (≈ 18.4 µM) | –
isolate (source animal id): 190 | 8 (≈ 9.2 µM) | –
isolate (source animal id): 194 | 8 (≈ 9.2 µM) | –
isolate (source animal id): 195 | 8 (≈ 9.2 µM) | –
isolate (source animal id): 197 | 8 (≈ 9.2 µM) | –
isolate (source animal id): 211 | 8 (≈ 9.2 µM) | –
isolate (source animal id): 214 | 8 (≈ 9.2 µM) | –
isolate (source animal id): 222 | 8 (≈ 9.2 µM) | –
isolate (source animal id): 223 | 8 (≈ 9.2 µM) | –
isolate (source animal id): 228 | > 16 | –
isolate (source animal id): 230 | > 16 | –
isolate (source animal id): 235 | > 16 | –
isolate (source animal id): 236 | 8 (≈ 9.2 µM) | –
isolate (source animal id): 239 | 4 (≈ 4.6 µM) | –
isolate (source animal id): 241 | > 16 | –
isolate (source animal id): 244 | 16 (≈ 18.4 µM) | –
isolate (source animal id): 246 | 16 (≈ 18.4 µM) | –
isolate (source animal id): 247 | > 16 | –
isolate (source animal id): 250 | 16 (≈ 18.4 µM) | –
isolate (source animal id): 252 | > 16 | –
isolate (source animal id): 268 | > 16 | –
isolate (source animal id): 269 | – | 8 (≈ 9.2 µM)
isolate (source animal id): 270 | – | > 16
isolate (source animal id): 274 | – | > 16
isolate (source animal id): 275 | – | > 16
isolate (source animal id): 276 | – | > 16
isolate (source animal id): 277 | – | 8 (≈ 9.2 µM)
isolate (source animal id): 278 | – | > 16
isolate (source animal id): 279 | – | > 16
isolate (source animal id): 280 | – | > 16
isolate (source animal id): 282 | 8 (≈ 9.2 µM) | –
isolate (source animal id): 284 | – | > 16
isolate (source animal id): 285 | > 16 | > 16
isolate (source animal id): 287 | – | > 16
isolate (source animal id): 289 | 16 (≈ 18.4 µM) | –
isolate (source animal id): 290 | 8 (≈ 9.2 µM) | > 16
isolate (source animal id): 294 | – | > 16
isolate (source animal id): 295 | – | > 16
isolate (source animal id): 296 | 8 (≈ 9.2 µM) | > 16
isolate (source animal id): 298 | 4 (≈ 4.6 µM) | –
isolate (source animal id): 301 | 8 (≈ 9.2 µM) | –
isolate (source animal id): 307 | – | > 16
isolate (source animal id): 310 | > 16 | > 16
isolate (source animal id): 311 | – | > 16
isolate (source animal id): 312 | – | > 16
isolate (source animal id): 313 | – | > 16
isolate (source animal id): 315 | – | > 16
isolate (source animal id): 316 | – | > 16
isolate (source animal id): 320 | 8 (≈ 9.2 µM) | –
isolate (source animal id): 331 | 8 (≈ 9.2 µM) | –
isolate (source animal id): 333 | 8 (≈ 9.2 µM) | –
isolate (source animal id): 341 | > 16 | –
